Read-outs that look alike come from different tables or passages of the source.
Legend:
Assay type in all cases: cell-based
[1] = molecular target: T1, protein kinases (human kinome) (Homo sapiens, UniProt Q12851); conditions: for logFC MAP4K2 (Q12851): direction down; for logFC: MAP4K2 (Q12851)
T1 sequence (Q12851 1-820): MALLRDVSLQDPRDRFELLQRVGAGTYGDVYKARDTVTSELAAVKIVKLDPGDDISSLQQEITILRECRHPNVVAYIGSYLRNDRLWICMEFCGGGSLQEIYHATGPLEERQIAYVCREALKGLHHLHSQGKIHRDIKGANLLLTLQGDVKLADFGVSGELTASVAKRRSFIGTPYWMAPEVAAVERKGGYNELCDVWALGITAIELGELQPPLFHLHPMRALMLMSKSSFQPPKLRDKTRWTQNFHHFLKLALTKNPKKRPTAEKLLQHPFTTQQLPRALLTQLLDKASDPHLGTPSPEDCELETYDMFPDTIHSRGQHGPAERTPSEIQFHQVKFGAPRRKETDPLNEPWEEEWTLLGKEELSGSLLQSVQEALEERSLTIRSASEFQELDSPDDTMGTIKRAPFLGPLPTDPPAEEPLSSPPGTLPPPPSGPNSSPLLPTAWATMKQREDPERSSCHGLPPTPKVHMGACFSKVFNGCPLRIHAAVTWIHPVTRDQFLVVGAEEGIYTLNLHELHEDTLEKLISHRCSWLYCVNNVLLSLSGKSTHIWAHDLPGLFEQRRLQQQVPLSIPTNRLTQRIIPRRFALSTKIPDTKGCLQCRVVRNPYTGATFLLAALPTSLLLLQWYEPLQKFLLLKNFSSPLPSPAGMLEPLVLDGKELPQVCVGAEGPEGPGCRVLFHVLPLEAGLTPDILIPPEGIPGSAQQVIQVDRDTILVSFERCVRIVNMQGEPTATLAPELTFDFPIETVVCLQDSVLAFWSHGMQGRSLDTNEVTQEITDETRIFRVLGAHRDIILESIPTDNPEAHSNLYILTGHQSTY

[2] = molecular target: protein kinases (human kinome) (Homo sapiens, UniProt Q07912)
Chain of protein kinases (human kinome) (Homo sapiens, UniProt Q07912) (Q07912 whole entry): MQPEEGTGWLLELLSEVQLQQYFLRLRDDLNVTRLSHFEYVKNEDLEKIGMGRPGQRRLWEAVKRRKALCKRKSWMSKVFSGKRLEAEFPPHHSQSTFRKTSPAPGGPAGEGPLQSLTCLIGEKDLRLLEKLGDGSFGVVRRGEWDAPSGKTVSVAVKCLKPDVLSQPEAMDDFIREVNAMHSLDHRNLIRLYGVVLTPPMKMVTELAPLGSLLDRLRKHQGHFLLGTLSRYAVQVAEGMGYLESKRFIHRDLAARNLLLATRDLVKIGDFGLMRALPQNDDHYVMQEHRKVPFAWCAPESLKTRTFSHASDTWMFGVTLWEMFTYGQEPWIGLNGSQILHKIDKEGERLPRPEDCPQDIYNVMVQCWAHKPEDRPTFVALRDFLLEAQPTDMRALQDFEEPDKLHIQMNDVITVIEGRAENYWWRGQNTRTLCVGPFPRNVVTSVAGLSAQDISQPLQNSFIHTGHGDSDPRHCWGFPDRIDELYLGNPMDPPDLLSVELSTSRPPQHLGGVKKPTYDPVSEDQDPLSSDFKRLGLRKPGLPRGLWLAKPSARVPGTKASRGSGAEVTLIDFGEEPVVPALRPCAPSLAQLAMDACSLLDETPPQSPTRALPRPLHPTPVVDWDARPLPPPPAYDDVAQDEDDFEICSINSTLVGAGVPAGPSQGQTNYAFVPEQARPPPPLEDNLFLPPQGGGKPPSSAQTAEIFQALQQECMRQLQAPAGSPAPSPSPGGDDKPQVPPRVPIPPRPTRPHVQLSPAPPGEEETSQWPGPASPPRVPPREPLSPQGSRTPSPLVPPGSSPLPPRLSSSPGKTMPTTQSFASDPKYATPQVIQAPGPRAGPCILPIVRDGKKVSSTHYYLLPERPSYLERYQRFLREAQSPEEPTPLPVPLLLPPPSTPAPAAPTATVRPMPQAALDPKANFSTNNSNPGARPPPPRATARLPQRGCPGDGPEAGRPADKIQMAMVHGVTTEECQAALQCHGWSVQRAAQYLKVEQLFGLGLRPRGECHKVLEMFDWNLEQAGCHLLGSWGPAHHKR

[3] = molecular target: protein kinases (human kinome) (Homo sapiens, UniProt Q14289); conditions: for logFC: PTK2B (Q14289-1) protein abundance, degrader vs DMSO, down; for logFC PTK2B: accession Q14289-1, direction of change down
Chain of protein kinases (human kinome) (Homo sapiens, UniProt Q14289) (Q14289 whole entry): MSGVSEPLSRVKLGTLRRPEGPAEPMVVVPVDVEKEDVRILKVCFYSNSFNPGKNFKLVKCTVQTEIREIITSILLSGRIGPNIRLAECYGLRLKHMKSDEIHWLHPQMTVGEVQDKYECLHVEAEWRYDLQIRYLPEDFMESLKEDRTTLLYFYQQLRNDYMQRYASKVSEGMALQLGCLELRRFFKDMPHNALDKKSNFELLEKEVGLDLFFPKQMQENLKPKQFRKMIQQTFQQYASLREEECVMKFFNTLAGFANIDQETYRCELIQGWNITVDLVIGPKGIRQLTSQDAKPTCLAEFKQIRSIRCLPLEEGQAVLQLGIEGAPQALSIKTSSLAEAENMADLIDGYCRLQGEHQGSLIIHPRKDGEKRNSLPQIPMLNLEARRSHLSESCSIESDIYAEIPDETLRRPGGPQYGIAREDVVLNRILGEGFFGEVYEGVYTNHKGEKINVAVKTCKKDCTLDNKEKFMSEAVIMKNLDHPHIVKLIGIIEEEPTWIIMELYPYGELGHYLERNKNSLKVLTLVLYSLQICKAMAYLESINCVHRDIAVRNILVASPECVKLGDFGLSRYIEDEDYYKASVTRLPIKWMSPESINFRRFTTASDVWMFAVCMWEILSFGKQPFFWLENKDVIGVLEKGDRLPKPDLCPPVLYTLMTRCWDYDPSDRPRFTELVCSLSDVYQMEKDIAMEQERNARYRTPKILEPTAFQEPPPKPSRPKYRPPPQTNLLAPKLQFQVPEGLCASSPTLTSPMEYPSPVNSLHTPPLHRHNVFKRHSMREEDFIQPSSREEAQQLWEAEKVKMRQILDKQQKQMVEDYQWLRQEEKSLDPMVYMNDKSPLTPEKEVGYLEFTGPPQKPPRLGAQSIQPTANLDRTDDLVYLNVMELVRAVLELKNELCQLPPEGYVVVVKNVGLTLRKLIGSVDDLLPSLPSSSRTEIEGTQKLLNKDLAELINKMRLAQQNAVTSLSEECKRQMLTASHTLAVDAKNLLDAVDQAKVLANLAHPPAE

[4] = molecular target: T2, protein kinases (human kinome) (Homo sapiens, UniProt P33981); conditions: for logFC TTK: Accession P33981
T2 sequence (P33981 1-857): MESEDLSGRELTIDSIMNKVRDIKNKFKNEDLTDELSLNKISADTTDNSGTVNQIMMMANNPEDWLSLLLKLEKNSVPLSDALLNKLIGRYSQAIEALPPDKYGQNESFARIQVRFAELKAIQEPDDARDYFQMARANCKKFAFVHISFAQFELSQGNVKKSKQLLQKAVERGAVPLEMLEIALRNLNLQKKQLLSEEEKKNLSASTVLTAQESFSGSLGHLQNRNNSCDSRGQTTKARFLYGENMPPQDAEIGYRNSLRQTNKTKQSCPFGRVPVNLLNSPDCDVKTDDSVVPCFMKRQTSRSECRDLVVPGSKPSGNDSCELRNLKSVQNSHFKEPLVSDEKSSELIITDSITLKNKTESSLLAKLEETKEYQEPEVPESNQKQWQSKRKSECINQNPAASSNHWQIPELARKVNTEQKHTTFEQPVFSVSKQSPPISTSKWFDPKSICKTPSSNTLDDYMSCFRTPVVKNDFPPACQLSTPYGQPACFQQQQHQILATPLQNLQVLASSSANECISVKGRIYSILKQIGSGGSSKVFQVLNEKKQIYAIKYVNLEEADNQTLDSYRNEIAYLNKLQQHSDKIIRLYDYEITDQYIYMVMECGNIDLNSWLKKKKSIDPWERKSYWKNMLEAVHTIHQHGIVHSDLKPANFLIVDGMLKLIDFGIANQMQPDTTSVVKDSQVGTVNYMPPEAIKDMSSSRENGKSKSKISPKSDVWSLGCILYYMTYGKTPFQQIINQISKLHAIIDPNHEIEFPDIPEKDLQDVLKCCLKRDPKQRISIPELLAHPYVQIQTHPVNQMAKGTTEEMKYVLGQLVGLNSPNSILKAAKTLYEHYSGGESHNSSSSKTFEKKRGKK

[5] = molecular target: protein kinases (human kinome) (Homo sapiens, UniProt O43683); conditions: for logFC: BUB1 (O43683), experiment wp076; for logFC BUB1 (O43683): Experiment wp076, direction down
Chain of protein kinases (human kinome) (Homo sapiens, UniProt O43683) (O43683 whole entry): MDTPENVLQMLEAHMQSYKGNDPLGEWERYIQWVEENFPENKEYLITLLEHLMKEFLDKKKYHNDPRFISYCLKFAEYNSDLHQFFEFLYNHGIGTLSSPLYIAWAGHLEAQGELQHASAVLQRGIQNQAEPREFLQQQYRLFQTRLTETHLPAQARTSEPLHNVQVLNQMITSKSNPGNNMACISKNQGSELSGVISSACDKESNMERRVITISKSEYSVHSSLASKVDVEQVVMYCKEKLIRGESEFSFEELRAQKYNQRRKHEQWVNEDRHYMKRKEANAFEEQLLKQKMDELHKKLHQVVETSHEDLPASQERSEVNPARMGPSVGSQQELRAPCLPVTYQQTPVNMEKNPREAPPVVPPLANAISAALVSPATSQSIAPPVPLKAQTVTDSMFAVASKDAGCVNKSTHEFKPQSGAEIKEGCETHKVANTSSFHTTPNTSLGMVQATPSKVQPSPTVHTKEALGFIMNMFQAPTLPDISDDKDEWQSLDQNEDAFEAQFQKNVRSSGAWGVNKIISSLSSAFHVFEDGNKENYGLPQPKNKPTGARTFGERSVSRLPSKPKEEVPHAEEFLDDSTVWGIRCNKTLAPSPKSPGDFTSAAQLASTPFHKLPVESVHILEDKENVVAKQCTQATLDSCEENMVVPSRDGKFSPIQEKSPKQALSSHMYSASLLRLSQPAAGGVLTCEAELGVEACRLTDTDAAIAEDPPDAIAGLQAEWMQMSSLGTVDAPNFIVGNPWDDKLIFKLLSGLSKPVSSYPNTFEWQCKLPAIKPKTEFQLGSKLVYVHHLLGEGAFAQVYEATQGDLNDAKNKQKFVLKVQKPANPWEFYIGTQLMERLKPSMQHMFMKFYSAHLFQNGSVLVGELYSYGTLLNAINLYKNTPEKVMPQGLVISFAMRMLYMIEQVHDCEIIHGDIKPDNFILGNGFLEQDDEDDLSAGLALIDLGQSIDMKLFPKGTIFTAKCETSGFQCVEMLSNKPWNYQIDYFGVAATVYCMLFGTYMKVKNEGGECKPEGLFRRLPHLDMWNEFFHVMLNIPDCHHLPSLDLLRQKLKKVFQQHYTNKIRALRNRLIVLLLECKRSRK

## Cc1ccc(C(=O)Nc2ccc(CN3CCN(CCOCCOCCNC(=O)CNc4cccc5c4C(=O)N(C4CCC(=O)NC4=O)C5=O)CC3)c(C(F)(F)F)c2)cc1C#Cc1cnc2cccnn12 (stereo not drawn) [TL13.150]
[1]; Experiment wp081
  logFC MAP4K2 (Q12851): −1.088
[1]; experiment wp081
  logFC: −1.088

## CC(C)S(=O)(=O)c1ccccc1Nc1nc(Nc2ccc(N3CCN(CCOCCOCCC(=O)NCCNc4cccc5c4CN(C4CCC(=O)NC4=O)C5=O)CC3)cc2)ncc1Cl (stereo not drawn) [TL13.97]
[2]; Experiment wp137, direction down
  logFC TNK2 (Q07912-1): −1.971
[2]; TNK2 (Q07912-1), experiment wp137
  logFC TNK2: −1.971

## CS(=O)(=O)Nc1cccc(-c2csc3cnc(Nc4ccc(N5CCN(CCOCCOCCOc6cccc7c6C(=O)N(C6CCC(=O)NC6=O)C7=O)CC5)cc4)nc23)c1 (stereo not drawn) [RSS0628]
[3]
  logFC: −1.517
[3]; experiment wp045
  logFC PTK2B: −1.517

## CNC(=O)c1ccccc1Nc1cc(Nc2ccc(N3CCN(CCOCCOCCNC(=O)CNc4cccc5c4C(=O)N(C4CCC(=O)NC4=O)C5=O)CC3)cc2OC)ncc1C(F)(F)F (stereo not drawn) [MFH.5.103.1]
[3]
  logFC: −3.18
[3]; experiment wp076
  logFC PTK2B: −3.18

## CC(C)S(=O)(=O)c1ccccc1Nc1nc(Nc2ccc(N3CCN(CCOCCNC(=O)CNc4ccc5c(c4)C(=O)N(C4CCC(=O)NC4=O)C5=O)CC3)cc2)ncc1Cl (stereo not drawn) [SK.3.93]
[3]
  logFC: −3.269
[3]; experiment wp016
  logFC PTK2B: −3.269

## Cc1ccc(NC(=O)c2cccc(C(F)(F)F)c2)cc1N1Cc2cnc(Nc3ccc(N4CCN(CCCCCCOc5cccc6c5C(=O)N(C5CCC(=O)NC5=O)C6=O)CC4)nc3)nc2N(C)C1=O (stereo not drawn) [DB0663]
[3]
  logFC: −1.961
[3]; experiment wp045
  logFC PTK2B: −1.961
[1]; Experiment wp046
  logFC MAP4K2 (Q12851): −0.3823
[1]; experiment wp045
  logFC: −0.3823

## O=C1CCC(N2C(=O)c3cccc(NCCCCCCCCN4CCC(NC(=O)c5[nH]ncc5NC(=O)c5c(Cl)cccc5Cl)CC4)c3C2=O)C(=O)N1 (stereo not drawn) [MFH.5.126.1]
[4]; experiment wp076
  logFC TTK: −0.4412
  logFC TTK (P33981): −0.4412
[5]
  logFC: −0.9248
  logFC BUB1 (O43683): −0.9248

## CS(=O)(=O)Nc1cccc(-c2csc3cnc(Nc4ccc(N5CCN(CCCCCOc6cccc7c6C(=O)N(C6CCC(=O)NC6=O)C7=O)CC5)cc4)nc23)c1 (stereo not drawn) [DB0614, N-(3-(2-((4-(4-(5-((2-(2,6-Dioxopiperidin-3-yl)-1,3-dioxoisoindolin-4-yl)oxy)pentyl)piperazin-1-yl)phenyl)amino)thieno[3,2-d]pyrimidin-7-yl)phenyl)methanesulfonamide]
[3]
  logFC: −1.425
[3]; experiment wp045
  logFC PTK2B: −1.425

## Cc1cc(Nc2ncc(Br)c(Nc3cccc(F)c3C(N)=O)n2)ccc1S(=O)(=O)NCCOCCOCCOCCOCCNc1cccc2c1C(=O)N(C1CCC(=O)NC1=O)C2=O (stereo not drawn) [TMX.02.174]
[3]
  logFC: −1.512
[3]; experiment wp146
  logFC PTK2B: −1.512
[4]; experiment wp146
  logFC TTK: −0.7225
  logFC TTK (P33981): −0.7225

## NC(=O)c1c(F)cccc1Nc1nc(Nc2ccc(S(=O)(=O)NCCOCCOCCOCCOCCNc3cccc4c3C(=O)N(C3CCC(=O)NC3=O)C4=O)cc2)ncc1Br (stereo not drawn) [TMX.02.138]
[3]
  logFC: −1.24
[3]; experiment wp146
  logFC PTK2B: −1.24
[4]; experiment wp146
  logFC TTK: −0.6178
  logFC TTK (P33981): −0.6178

## CCc1cnn2c(N(Cc3ccc(N)nc3)C(=O)CCOCCOCCOCCNC(=O)CNc3cccc4c3C(=O)N(C3CCC(=O)NC3=O)C4=O)cc(N3CCCC[C@H]3CCO)nc12 (stereo partly drawn) [MFH.5.115.2]
[4]; experiment wp076
  logFC TTK: −0.3249
  logFC TTK (P33981): −0.3249
[5]
  logFC: −0.5159
  logFC BUB1 (O43683): −0.5159

## CC(C)S(=O)(=O)c1ccccc1Nc1nc(Nc2ccc(N3CCN(CCOCCNC(=O)CNc4cccc5c4C(=O)N(C4CCC(=O)NC4=O)C5=O)CC3)cc2)ncc1Cl (stereo not drawn) [SK-3-91]
[5]; MOLT-4 and MM.1S cell lines
  BUB1 degradation: degraded

From patent publication US20240269139A1, “COMPOUNDS FOR TARGETED PROTEIN DEGRADATION OF KINASES” (DANA-FARBER CANCER INSTITUTE, INC., priority 2020, published 2024)
